Several values for one entry are separate records, joined by “and”; a condition that tells them apart may be missing. Equal entries are not always repeated. Inconclusive results and toxic doses are left out. Cut-off read from the data, not from the text of the source: active = T/C of 150% or more; inactive = T/C below 125%.
Test system: L1210 leukemia ip in BDF1 mice, survival T/C
Experiment: NCI In Vivo Anticancer Drug Screen. Data for tumor model L1210 Leukemia (intraperitoneal) in B6D2F1 (BDF1) mice
Details: endpoint: mean survival time, higher = longer survival
Summary of the method: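 Tumor cells were implanted, animals were treated, and survival was followed. The result divides the treated measurement by the vehicle-control measurement.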

[1] = dose: 100.0 mg/kg/injection, schedule: Q01DX009 (ip), vehicle: Klucel (hydroxypropylcellulose) (HPC)
[2] = dose: 100.0 mg/kg/injection, schedule: Q04DX003 (ip), vehicle: Klucel (hydroxypropylcellulose) (HPC)
[3] = dose: 200.0 mg/kg/injection, schedule: Q01DX009 (ip), vehicle: Klucel (hydroxypropylcellulose) (HPC)
[4] = dose: 200.0 mg/kg/injection, schedule: Q04DX003 (ip), vehicle: Klucel (hydroxypropylcellulose) (HPC)
[5] = dose: 400.0 mg/kg/injection, schedule: Q01DX009 (ip), vehicle: Klucel (hydroxypropylcellulose) (HPC)
[6] = dose: 400.0 mg/kg/injection, schedule: Q04DX003 (ip), vehicle: Klucel (hydroxypropylcellulose) (HPC)
[7] = dose: 200.0 mg/kg/injection, schedule: Q04DX002 (ip), vehicle: Klucel (hydroxypropylcellulose) (HPC)
[8] = dose: 400.0 mg/kg/injection, schedule: Q04DX002 (ip), vehicle: Klucel (hydroxypropylcellulose) (HPC)
[9] = dose: 100.0 mg/kg/injection, schedule: Q01DX001 (ip), vehicle: other
[10] = dose: 200.0 mg/kg/injection, schedule: Q01DX001 (ip), vehicle: other
[11] = dose: 50.0 mg/kg/injection, schedule: Q01DX001 (ip), vehicle: carboxymethylcellulose (CMC)
[12] = dose: 100.0 mg/kg/injection, schedule: Q01DX001 (ip), vehicle: carboxymethylcellulose (CMC)
[13] = dose: 200.0 mg/kg/injection, schedule: Q01DX001 (ip), vehicle: carboxymethylcellulose (CMC)
[14] = dose: 400.0 mg/kg/injection, schedule: Q01DX001 (ip), vehicle: carboxymethylcellulose (CMC)
[15] = dose: 100.0 mg/kg/injection, schedule: Q01DX009 (ip), vehicle: saline with Tween-80
[16] = dose: 200.0 mg/kg/injection, schedule: Q01DX009 (ip), vehicle: saline with Tween-80
[17] = dose: 400.0 mg/kg/injection, schedule: Q01DX009 (ip), vehicle: saline with Tween-80
[18] = dose: 100.0 mg/kg/injection, schedule: Q01DX001 (ip), vehicle: saline
[19] = dose: 200.0 mg/kg/injection, schedule: Q01DX001 (ip), vehicle: saline
[20] = dose: 400.0 mg/kg/injection, schedule: Q01DX001 (ip), vehicle: saline

Measured: T/C

O=C(NCCCl)NC1c2cc(Cl)ccc2-c2c(Cl)cc(Cl)cc21 (stereo not drawn)
inactive: dose: 100.0 mg/kg/injection, schedule: Q01DX001 (ip), vehicle: Klucel (hydroxypropylcellulose) (HPC) 92 % of control | [1] 87 % of control | [2] 94 % of control | dose: 200.0 mg/kg/injection, schedule: Q01DX001 (ip), vehicle: Klucel (hydroxypropylcellulose) (HPC) 96 % of control | [3] 90 % of control | [4] 98 % of control | dose: 400.0 mg/kg/injection, schedule: Q01DX001 (ip), vehicle: Klucel (hydroxypropylcellulose) (HPC) 92 % of control | [5] 95 % of control | [6] 98 % of control

O=c1[nH]c2ccccc2c(C(Cl)(Cl)Cl)c1Cl
inactive: dose: 12.5 mg/kg/injection, schedule: Q01DX009 (ip), vehicle: Klucel (hydroxypropylcellulose) (HPC) 93 % of control | dose: 25.0 mg/kg/injection, schedule: Q01DX009 (ip), vehicle: Klucel (hydroxypropylcellulose) (HPC) 90 % of control | dose: 50.0 mg/kg/injection, schedule: Q01DX009 (ip), vehicle: Klucel (hydroxypropylcellulose) (HPC) 100 % of control and 108 % of control | [1] 93 % of control

CCCCCCCCC(=O)N1CCC(C)CC1
inactive: [7] 106 % of control | [8] 95 % of control

COc1ccc(S(=O)(=O)/N=C(/C2CC3=CCC4C5CCC(=O)C5(C)CC(=O)C4C3(C)C2)N2CCCC2)cc1 (stereo not drawn)
inactive: [9] 103 % of control | [10] 108 % of control | dose: 400.0 mg/kg/injection, schedule: Q01DX001 (ip), vehicle: other 98 % of control

COc1ccc(Cl)cc1NC(=O)Oc1ccc(C=O)cc1OC
inactive: [1] 102 % of control and 114 % of control | [3] 98 % of control and 104 % of control | [5] 104 % of control and 109 % of control

CC(=O)Nc1ccc(S(N)(=O)=O)cc1
inactive: [11] 95 % of control | [12] 101 % of control | [1] 103 % of control | [13] 95 % of control | [14] 97 % of control

CCOC(=O)C(C)C(C)(O)c1ccccc1 (stereo not drawn)
inactive: [15] 95 % of control | [16] 109 % of control | [17] 96 % of control

CCCCCCCCCCCCCCCCCC(=O)N/N=C/c1ccc(Cl)cc1
inactive: [1] 101 % of control and 88 % of control | [3] 102 % of control | [5] 98 % of control and 92 % of control

CC(=O)OC1CCCCC1N (stereo not drawn)
inactive: dose: 100.0 mg/kg/injection, schedule: Q04DX002 (ip), vehicle: saline 100 % of control and 91 % of control | dose: 200.0 mg/kg/injection, schedule: Q04DX002 (ip), vehicle: saline 92 % of control and 103 % of control | dose: 400.0 mg/kg/injection, schedule: Q04DX002 (ip), vehicle: saline 103 % of control and 114 % of control

O=C(c1cccs1)c1cccs1
inactive: dose: 50.0 mg/kg/injection, schedule: Q01DX009 (ip), vehicle: saline with Tween-80 98 % of control | [15] 100 % of control | dose: 100.0 mg/kg/injection, schedule: Q04DX003 (ip), vehicle: saline with Tween-80 102 % of control | [16] 94 % of control | dose: 200.0 mg/kg/injection, schedule: Q04DX003 (ip), vehicle: saline with Tween-80 107 % of control | [17] 96 % of control | dose: 400.0 mg/kg/injection, schedule: Q04DX003 (ip), vehicle: saline with Tween-80 101 % of control

CC1(C)C2(c3ccccc3)C3C=CC3C12c1ccccc1 (stereo not drawn)
inactive: dose: 100.0 mg/kg/injection, schedule: Q04DX002 (ip), vehicle: Klucel (hydroxypropylcellulose) (HPC) 109 % of control | [7] 112 % of control | [8] 102 % of control

CCCCC(/C=C1/CCCCC1=O)CC (stereo not drawn)
inactive: [1] 97 % of control | [2] 92 % of control | [3] 97 % of control | [4] 103 % of control | [6] 97 % of control

O=[N+]([O-])c1ccc(C2SCSCS2)cc1
inactive: [2] 98 % of control | [3] 90 % of control | [4] 93 % of control | [5] 95 % of control | [6] 93 % of control

CC1=C2CC3CCC(C)C2(CC1)C3(C)C (stereo not drawn)
inactive: dose: 100.0 mg/kg/injection, schedule: Q01DX009 (ip), vehicle: saline 88 % of control | dose: 400.0 mg/kg/injection, schedule: Q01DX009 (ip), vehicle: saline 87 % of control

COc1ccccc1/C=C(/C)C(C)=O
inactive: dose: 75.0 mg/kg/injection, schedule: Q04DX003 (ip), vehicle: Klucel (hydroxypropylcellulose) (HPC) 102 % of control | [12] 103 % of control | dose: 150.0 mg/kg/injection, schedule: Q04DX003 (ip), vehicle: Klucel (hydroxypropylcellulose) (HPC) 97 % of control | [13] 108 % of control | dose: 300.0 mg/kg/injection, schedule: Q04DX003 (ip), vehicle: Klucel (hydroxypropylcellulose) (HPC) 94 % of control | [14] 97 % of control

CCCCNc1ccc(C(=O)O)cc1
inactive: dose: 100.0 mg/kg/injection, schedule: Q01DX009 (ip), vehicle: gum acacia 97 % of control | dose: 100.0 mg/kg/injection, schedule: Q04DX003 (ip), vehicle: gum acacia 90 % of control | dose: 200.0 mg/kg/injection, schedule: Q01DX009 (ip), vehicle: gum acacia 92 % of control | dose: 200.0 mg/kg/injection, schedule: Q04DX003 (ip), vehicle: gum acacia 91 % of control | dose: 400.0 mg/kg/injection, schedule: Q01DX009 (ip), vehicle: gum acacia 93 % of control | dose: 400.0 mg/kg/injection, schedule: Q04DX003 (ip), vehicle: gum acacia 93 % of control

O=c1nc2n(c(=O)[nH]1)CCN2
inactive: [11] 101 % of control | [12] 101 % of control | [13] 104 % of control | [14] 106 % of control

CC[C@H](CC[C@@H](C)C1CC[C@H]2[C@@H]3CCC4=CC(=O)CC[C@]4(C)[C@H]3CC[C@]12C)C(C)C (stereo partly drawn)
inactive: [18] 98 % of control | [19] 95 % of control | [20] 97 % of control

Nc1nc(N)c(N=Cc2ccc(N(CCCl)CCCl)cc2)c(N)n1
inactive: dose: 50.0 mg/kg/injection, schedule: Q01DX001 (ip), vehicle: saline 100 % of control | [12] 103 % of control | [19] 103 % of control | [14] 100 % of control

COC(=O)C(=C/C=C/c1cc(O)c(O)c(O)c1)C(=O)OC
inactive: dose: 50.0 mg/kg/injection, schedule: Q01DX001 (ip), vehicle: other 104 % of control | [9] 98 % of control | [10] 95 % of control

COc1ccc(Br)c([N+](=O)[O-])c1
inactive: [18] 103 % of control | [19] 97 % of control | [20] 103 % of control

O=C(O)C(Br)CCCCC(Br)C(=O)O (stereo not drawn)
inactive: dose: 100.0 mg/kg/injection, schedule: Q01DX001 (ip), vehicle: steriod suspending solution 105 % of control | dose: 200.0 mg/kg/injection, schedule: Q01DX001 (ip), vehicle: steriod suspending solution 97 % of control | dose: 400.0 mg/kg/injection, schedule: Q01DX001 (ip), vehicle: steriod suspending solution 105 % of control

NC(N)=N/N=C/C(=N/N=C(N)N)c1ccccc1
inactive: dose: 30.0 mg/kg/injection, schedule: Q01DX Z (oral), vehicle: carboxymethylcellulose (CMC) 108 % of control | dose: 60.0 mg/kg/injection, schedule: Q01DX Z (oral), vehicle: carboxymethylcellulose (CMC) 115 % of control | dose: 120.0 mg/kg/injection, schedule: Q01DX Z (oral), vehicle: carboxymethylcellulose (CMC) 105 % of control | dose: 240.0 mg/kg/injection, schedule: Q01DX Z (oral), vehicle: carboxymethylcellulose (CMC) 103 % of control
